# System: common cutworm (third-instar larvae)
# Test: Test 1 (Effect on Common Cutworm)
# Format: in vivo
# Details: Spodoptera litura; 20 ppm; 48 hours; third-instar larvae; read-out: Mortality (%)
# Procedure: (§1) Compounds (a) through (g) described below were tested as comparative compounds in the same manner as the compounds of the present invention. All the tests were doubly carried out. Namely, each result was expressed by an average value of two data.
# The emulsifiable concentrate of the test compound, prepared according to the method described in Formulation Example 1, was diluted with water to a specified concentration. Sweet potato leaves were sufficiently immersed in the dilution. The sweet potato leaves were dried and placed in a plastic cup having a diameter of 10 cm, and 10 third-instar larvae of common cutworm were set free in each cup. 48 hours after, the numbers of killed and living larvae were counted and the mortality was calculated.
row,Molecule,mortality at 20 ppm
1,"CC(C)Oc1ccc(C(C)(C)CCCc2cccc(Oc3ccccc3)c2)cc1 [Compound 9, 1-(3-phenoxyphenyl)-4-(4-isopropoxyphenyl)-4-methylpentane]",100%
2,CCOc1ccc(C(C)(C)CCCc2cccc(Oc3ccccc3)n2)cc1 [Compound 19],70%
3,CC(C)(CCCc1ccc(F)c(Oc2ccccc2)c1)c1ccc(Cl)cc1 [Compound 20],100%
4,CCOc1ccc(C(C)(C)CCCc2cccc(Oc3ccccc3)c2)cc1 [Compound 24],100%
5,CC(C)(CCCc1cccc(Oc2ccccc2)c1)c1ccc(OC(F)(F)CCl)cc1 [Compound 35],100%
6,CC(C)(C)c1ccc(C(C)(C)CCCc2ccc(F)c(Oc3ccccc3)c2)cc1 [Compound 44],40%
7,CCc1ccc(C(C)(C)CCCc2ccc(F)c(Oc3ccccc3)c2)cc1 [Compound 52],100%
8,"CC(C)(CCC(C#N)c1cccc(Oc2ccccc2)c1)c1ccc(Cl)cc1 (centres unmarked) [Compound 54, 1-(3-Phenoxyphenyl)-1-cyano-4-(4-chlorophenyl)-4-methylpentane]",45%
9,CCOc1ccc(C(C)(C)CCCc2ccc(F)c(Oc3ccccc3)c2)cc1Cl [Compound 57],100%
10,CC(C)(CCCc1cccc(Oc2ccccc2)c1)c1ccc(OCCF)cc1 [Compound 60],90%
11,CCOC(=O)c1ccc(C(C)(C)CCCc2cccc(Oc3ccccc3)c2)cc1 [Compound 64],40%
12,CC(C)(CCCc1ccc(F)c(Oc2ccccc2)c1)c1ccc(OC(F)(F)C(F)F)cc1 [Compound 66],100%

# Same assay, conditions: Spodoptera litura; 100 ppm; 48 hours; third-instar larvae; read-out: Mortality (%)
row,Molecule,mortality at 100 ppm
1,"CC(C)Oc1ccc(C(C)(C)CCCc2cccc(Oc3ccccc3)c2)cc1 [Compound 9, 1-(3-phenoxyphenyl)-4-(4-isopropoxyphenyl)-4-methylpentane]",100%
2,CCOc1ccc(C(C)(C)CCCc2cccc(Oc3ccccc3)n2)cc1 [Compound 19],100%
3,CC(C)(CCCc1ccc(F)c(Oc2ccccc2)c1)c1ccc(Cl)cc1 [Compound 20],100%
4,CCOc1ccc(C(C)(C)CCCc2cccc(Oc3ccccc3)c2)cc1 [Compound 24],100%
5,CC(C)(CCCc1cccc(Oc2ccccc2)c1)c1ccc(OC(F)(F)CCl)cc1 [Compound 35],100%
6,CC(C)(C)c1ccc(C(C)(C)CCCc2ccc(F)c(Oc3ccccc3)c2)cc1 [Compound 44],90%
7,CCc1ccc(C(C)(C)CCCc2ccc(F)c(Oc3ccccc3)c2)cc1 [Compound 52],100%
8,"CC(C)(CCC(C#N)c1cccc(Oc2ccccc2)c1)c1ccc(Cl)cc1 (centres unmarked) [Compound 54, 1-(3-Phenoxyphenyl)-1-cyano-4-(4-chlorophenyl)-4-methylpentane]",90%
9,CCOc1ccc(C(C)(C)CCCc2ccc(F)c(Oc3ccccc3)c2)cc1Cl [Compound 57],100%
10,CC(C)(CCCc1cccc(Oc2ccccc2)c1)c1ccc(OCCF)cc1 [Compound 60],100%
11,CCOC(=O)c1ccc(C(C)(C)CCCc2cccc(Oc3ccccc3)c2)cc1 [Compound 64],90%
12,CC(C)(CCCc1ccc(F)c(Oc2ccccc2)c1)c1ccc(OC(F)(F)C(F)F)cc1 [Compound 66],100%

# System: two-spotted spider mite (adults)
# Test: Test 4 (Effect on Two-Spotted Spider Mite)
# Format: in vivo
# Details: Tetranychus urticae; 200 ppm; 24 hours; adults; read-out: Mortality (%)
# Procedure: as §1
# A kidney bean leaf disc (20 mm in diameter) perforated with a cork borer was placed on water-impregnated absorbent cotton, and thereon 20 adults of two-spotted spider mite were set free, and the resulting set was allowed to stand around the clock. The same dilution of the emulsifiable concentrate of a test compound having a concentration of 200 ppm as used in Test 1 and Test 2, was applied by an applicator having a diameter of 20 cm and a height of 60 cm in an amount of 3 ml. 24 hours after, the number of killed adults was counted.
row,Molecule,mortality at 200 ppm
1,"CC(C)Oc1ccc(C(C)(C)CCCc2cccc(Oc3ccccc3)c2)cc1 [Compound 9, 1-(3-phenoxyphenyl)-4-(4-isopropoxyphenyl)-4-methylpentane]",100%
2,CCOc1ccc(C(C)(C)CCCc2cccc(Oc3ccccc3)n2)cc1 [Compound 19],43%
3,CC(C)(CCCc1ccc(F)c(Oc2ccccc2)c1)c1ccc(Cl)cc1 [Compound 20],100%
4,CCOc1ccc(C(C)(C)CCCc2cccc(Oc3ccccc3)c2)cc1 [Compound 24],95%
5,CC(C)(CCCc1cccc(Oc2ccccc2)c1)c1ccc(OC(F)(F)CCl)cc1 [Compound 35],85%
6,CC(C)(C)c1ccc(C(C)(C)CCCc2ccc(F)c(Oc3ccccc3)c2)cc1 [Compound 44],85%
7,CCc1ccc(C(C)(C)CCCc2ccc(F)c(Oc3ccccc3)c2)cc1 [Compound 52],100%
8,CC(C)(CCCc1ccc(F)c(Oc2ccc(F)cc2)c1)c1ccc(Cl)cc1 [Compound 53],100%
9,"CC(C)(CCC(C#N)c1cccc(Oc2ccccc2)c1)c1ccc(Cl)cc1 (centres unmarked) [Compound 54, 1-(3-Phenoxyphenyl)-1-cyano-4-(4-chlorophenyl)-4-methylpentane]",100%
10,CC(C)c1ccc(C(C)(C)CCCc2ccc(F)c(Oc3ccccc3)c2)cc1 [Compound 56],100%
11,CCOc1ccc(C(C)(C)CCCc2ccc(F)c(Oc3ccccc3)c2)cc1Cl [Compound 57],91%
12,CC(C)(CCCc1cccc(Oc2ccccc2)c1)c1ccc(OCCF)cc1 [Compound 60],90%
13,CCOC(=O)c1ccc(C(C)(C)CCCc2cccc(Oc3ccccc3)c2)cc1 [Compound 64],70%
14,CC(C)(CCCc1ccc(F)c(Oc2ccccc2)c1)c1ccc(OC(F)(F)C(F)F)cc1 [Compound 66],100%

# System: plants of Solanacede
# Test: phytotoxicity to plants of Solanacede
# Details: not given
row,Molecule,phytotoxicity to plants of Solanacede
1,"CC(C)C(C(=O)OC(C#N)c1cccc(Oc2ccccc2)c1)c1ccc(Cl)cc1 (centres unmarked) [(g), Fenvalerate, reference compound]",observed

# System: yearling carps
# Test: Test 5 (Fish Toxicity)
# Format: in vivo, carp
# Details: 0.1 ppm in water
# Procedure: as §1
# A water tank having a width of 60 cm, a length of 30 cm and a height of 40 cm was filled with water, and 10 yearling carps having a body length of about 5 cm were set free in the tank and adapted to the environment in the tank. An acetone solution of a test compound was applied into water so as to become a concentration of 1 or 0.1 ppm in water by adding said acetone solution at a rate of one part by volume per 100 parts by volume of water. 48 hours after, the number of killed and living carps was counted and the effect of a test compound on carps was examined.
row,Molecule,Mortality(%) 48 Hours After
1,"CC(C)C(C(=O)OC(C#N)c1cccc(Oc2ccccc2)c1)c1ccc(Cl)cc1 (centres unmarked) [(g), Fenvalerate, reference compound]",100%
2,CC(C)(CCCc1ccc(F)c(Oc2ccccc2)c1)c1ccc(Cl)cc1 [Compound 20],0%
3,CCOc1ccc(C(C)(C)CCCc2cccc(Oc3ccccc3)c2)cc1 [Compound 24],0%
4,CC(C)(CCCc1cccc(Oc2ccccc2)c1)c1ccc(OC(F)(F)CCl)cc1 [Compound 35],0%
5,CCOc1ccc(C(C)(C)CCCc2ccc(F)c(Oc3ccccc3)c2)cc1Cl [Compound 57],0%

# Same assay, conditions: 1 ppm in water
row,Molecule,Mortality(%) 48 Hours After
1,"CC(C)C(C(=O)OC(C#N)c1cccc(Oc2ccccc2)c1)c1ccc(Cl)cc1 (centres unmarked) [(g), Fenvalerate, reference compound]",100%
2,CC(C)(CCCc1ccc(F)c(Oc2ccccc2)c1)c1ccc(Cl)cc1 [Compound 20],0%
3,CCOc1ccc(C(C)(C)CCCc2cccc(Oc3ccccc3)c2)cc1 [Compound 24],0%
4,CC(C)(CCCc1cccc(Oc2ccccc2)c1)c1ccc(OC(F)(F)CCl)cc1 [Compound 35],0%
5,CCOc1ccc(C(C)(C)CCCc2ccc(F)c(Oc3ccccc3)c2)cc1Cl [Compound 57],0%

# System: green rice leafhopper (female adults)
# Test: Test 2 (Effect on Green Rice Leafhopper)
# Format: in vivo
# Details: Nephotettix cincticeps; 20 ppm; 48 hours; female adults; read-out: Mortality (%)
# Procedure: as §1
# Four or five seedlings of paddy rice with three leaves were bundled, and thereon the same dilution of the emulsifiable concentrate as used in Test 1 was sprayed in an amount of 3 ml. The bundle was dried and covered with a metal net cylinder, and 10 female adults of green rice leafhopper were set free in the cylinder. 48 hours after, the number of killed adults was counted.
row,Molecule,mortality at 20 ppm
1,"CC(C)Oc1ccc(C(C)(C)CCCc2cccc(Oc3ccccc3)c2)cc1 [Compound 9, 1-(3-phenoxyphenyl)-4-(4-isopropoxyphenyl)-4-methylpentane]",100%
2,CC(C)(CCCc1ccc(F)c(Oc2ccccc2)c1)c1ccc(Cl)cc1 [Compound 20],100%
3,CCOc1ccc(C(C)(C)CCCc2cccc(Oc3ccccc3)c2)cc1 [Compound 24],100%
4,CCc1ccc(C(C)(C)CCCc2ccc(F)c(Oc3ccccc3)c2)cc1 [Compound 52],100%
5,CC(C)(CCCc1ccc(F)c(Oc2ccc(F)cc2)c1)c1ccc(Cl)cc1 [Compound 53],100%
6,"CC(C)(CCC(C#N)c1cccc(Oc2ccccc2)c1)c1ccc(Cl)cc1 (centres unmarked) [Compound 54, 1-(3-Phenoxyphenyl)-1-cyano-4-(4-chlorophenyl)-4-methylpentane]",50%
7,CC(C)c1ccc(C(C)(C)CCCc2ccc(F)c(Oc3ccccc3)c2)cc1 [Compound 56],100%
8,CCOc1ccc(C(C)(C)CCCc2ccc(F)c(Oc3ccccc3)c2)cc1Cl [Compound 57],100%
9,CC(C)(CCCc1cccc(Oc2ccccc2)c1)c1ccc(OCCF)cc1 [Compound 60],100%
10,CC(C)(CCCc1ccc(F)c(Oc2ccccc2)c1)c1ccc(OC(F)(F)C(F)F)cc1 [Compound 66],100%

# Same assay, conditions: Nephotettix cincticeps; 100 ppm; 48 hours; female adults; read-out: Mortality (%)
row,Molecule,mortality at 100 ppm
1,"CC(C)Oc1ccc(C(C)(C)CCCc2cccc(Oc3ccccc3)c2)cc1 [Compound 9, 1-(3-phenoxyphenyl)-4-(4-isopropoxyphenyl)-4-methylpentane]",100%
2,CC(C)(CCCc1ccc(F)c(Oc2ccccc2)c1)c1ccc(Cl)cc1 [Compound 20],100%
3,CCOc1ccc(C(C)(C)CCCc2cccc(Oc3ccccc3)c2)cc1 [Compound 24],100%
4,CCc1ccc(C(C)(C)CCCc2ccc(F)c(Oc3ccccc3)c2)cc1 [Compound 52],100%
5,CC(C)(CCCc1ccc(F)c(Oc2ccc(F)cc2)c1)c1ccc(Cl)cc1 [Compound 53],100%
6,"CC(C)(CCC(C#N)c1cccc(Oc2ccccc2)c1)c1ccc(Cl)cc1 (centres unmarked) [Compound 54, 1-(3-Phenoxyphenyl)-1-cyano-4-(4-chlorophenyl)-4-methylpentane]",90%
7,CC(C)c1ccc(C(C)(C)CCCc2ccc(F)c(Oc3ccccc3)c2)cc1 [Compound 56],100%
8,CCOc1ccc(C(C)(C)CCCc2ccc(F)c(Oc3ccccc3)c2)cc1Cl [Compound 57],100%
9,CC(C)(CCCc1cccc(Oc2ccccc2)c1)c1ccc(OCCF)cc1 [Compound 60],100%
10,CC(C)(CCCc1ccc(F)c(Oc2ccccc2)c1)c1ccc(OC(F)(F)C(F)F)cc1 [Compound 66],100%

# System: green rice leafhopper (female adults)
# Test: Test 2 (Effect on Green Rice Leafhopper)
# Format: in vivo
# Details: 20 ppm; 48 hours; marked * in Table 3
row,Molecule,Rate of Number of Adults KnockedDown
1,1-(3-Benzoylphenyl)-4-(4-chlorophenyl)-4-methylpentane [Compound 11],60%
2,"CCOc1ccc(C(C)(C)CCCN2C(=O)C3=C(CCCC3)C2=O)cc1 [Compound 12, 1-(3,4,5,6-Tetrahydrophthalimido)-4-(4-ethoxyphenyl)-4-methylpentane]",40%

# Same assay, conditions: 100 ppm; 48 hours; marked * in Table 3
row,Molecule,Rate of Number of Adults KnockedDown
1,1-(3-Benzoylphenyl)-4-(4-chlorophenyl)-4-methylpentane [Compound 11],90%
2,"CCOc1ccc(C(C)(C)CCCN2C(=O)C3=C(CCCC3)C2=O)cc1 [Compound 12, 1-(3,4,5,6-Tetrahydrophthalimido)-4-(4-ethoxyphenyl)-4-methylpentane]",80%

# System: German cockroach (female adults)
# Test: Test 3 (Effect on German Cockroach)
# Format: in vivo, Blatella germanica (German cockroach)
# Details: Blattella germanica, 48 h
# Procedure: as §1
# One ml of an acetone solution of a test compound of a specified concentration was poured in a high Petri dish having a diameter of 9 cm and a height of 9 cm. The Petri dish was allowed to stand, and thereby the acetone was evaporated. The upper part of the inner wall of the Petri dish was treated with butter to prevent the adults of German cockroach from escaping from the Petri dish. 10 female adults of German cockroach were set free in each Petri dish. 48 hours after, the number of killed adults was counted.
Molecule,mortality at 1 mg/m2,mortality at 5 mg/m2
CC(C)(CCCc1cccc(Oc2ccccc2)c1)c1ccc(OC(F)(F)CCl)cc1 [Compound 35],70%,100%

# Same assay, conditions: Blattella germanica; 1 mg/m^2; 48 hours; female adults; read-out: Mortality (%)
row,Molecule,mortality at 1 mg/m2
1,CC(C)(CCCc1ccc(F)c(Oc2ccccc2)c1)c1ccc(Cl)cc1 [Compound 20],100%
2,CCOc1ccc(C(C)(C)CCCc2cccc(Oc3ccccc3)c2)cc1 [Compound 24],100%
3,CCc1ccc(C(C)(C)CCCc2ccc(F)c(Oc3ccccc3)c2)cc1 [Compound 52],70%
4,CC(C)(CCCc1ccc(F)c(Oc2ccc(F)cc2)c1)c1ccc(Cl)cc1 [Compound 53],80%
5,CC(C)c1ccc(C(C)(C)CCCc2ccc(F)c(Oc3ccccc3)c2)cc1 [Compound 56],40%
6,CCOc1ccc(C(C)(C)CCCc2ccc(F)c(Oc3ccccc3)c2)cc1Cl [Compound 57],100%
7,CC(C)(CCCc1ccc(F)c(Oc2ccccc2)c1)c1ccc(OC(F)(F)C(F)F)cc1 [Compound 66],65%

# Same assay, conditions: Blattella germanica; 5 mg/m^2; 48 hours; female adults; read-out: Mortality (%)
row,Molecule,mortality at 5 mg/m2
1,CC(C)(CCCc1ccc(F)c(Oc2ccccc2)c1)c1ccc(Cl)cc1 [Compound 20],100%
2,CCOc1ccc(C(C)(C)CCCc2cccc(Oc3ccccc3)c2)cc1 [Compound 24],100%
3,CCc1ccc(C(C)(C)CCCc2ccc(F)c(Oc3ccccc3)c2)cc1 [Compound 52],100%
4,CC(C)(CCCc1ccc(F)c(Oc2ccc(F)cc2)c1)c1ccc(Cl)cc1 [Compound 53],100%
5,CC(C)c1ccc(C(C)(C)CCCc2ccc(F)c(Oc3ccccc3)c2)cc1 [Compound 56],100%
6,CCOc1ccc(C(C)(C)CCCc2ccc(F)c(Oc3ccccc3)c2)cc1Cl [Compound 57],100%
7,CC(C)(CCCc1ccc(F)c(Oc2ccccc2)c1)c1ccc(OC(F)(F)C(F)F)cc1 [Compound 66],100%
